≈ marks a conversion by molar mass, not a printed value. Where two headings read alike, the source gives them in different places. No end group written: not given here.
Tests used:
G-actin = G-actin (Oryctolagus cuniculus, UniProt P68135); assay: Surface plasmon resonance, actin binding; parameters: species or system rabbit

CC[C@H](C)[C@H](NC(=O)[C@H](CCCCN)NC(=O)[C@H](CCC(=O)O)NC(=O)[C@H](CCCCN)NC(=O)[C@H](CO)NC(=O)[C@H](CCCCN)NC(=O)[C@H](CCCNC(=N)N)NC(=O)[C@H](Cc1ccccc1)NC(=O)[C@H](Cc1ccccc1)NC(=O)[C@H](CC(=O)O)NC(=O)CNC(=O)[C@H](CC(C)C)NC(=O)[C@@H](N)CC(C)C)C(=O)NCC(=O)N[C@@H](CCCCN)C(=O)N[C@@H](CCC(=O)O)C(=O)N[C@@H](Cc1ccccc1)C(=O)N[C@@H](CCCCN)C(=O)N[C@@H](CCCNC(=N)N)C(=O)N[C@H](C(=O)N[C@H](C(=O)N[C@@H](CCC(N)=O)C(=O)N[C@@H](CCCNC(=N)N)C(=O)N[C@H](C(=O)N[C@@H](CCCCN)C(=O)N[C@@H](CC(=O)O)C(=O)N[C@@H](Cc1ccccc1)C(=O)N[C@@H](CC(C)C)C(=O)N[C@@H](CCCNC(=N)N)C(=O)N[C@@H](CC(N)=O)C(=O)N[C@@H](CC(C)C)C(=O)N[C@H](C(=O)N1CCC[C@H]1C(=O)N[C@@H](CCCNC(=N)N)C(=O)N[C@H](C(=O)N[C@@H](CCC(=O)O)C(=O)N[C@@H](CO)C(=O)O)[C@@H](C)O)C(C)C)[C@@H](C)CC)C(C)C)[C@@H](C)CC [LL-37, reference compound]
MIC (Bacillus subtilis PY79; measured with B. subtilis PY79, LB, 37 °C): 1.1 µM (≈ 4.94 µg/mL)
MIC (E. coli K12; E. coli K12, 100 mM NaCl, tryptic soy broth (TSB)): 10 µM (≈ 44.9 µg/mL)
MIC (E. coli K12; E. coli K12, no salt, tryptic soy broth (TSB)): 10 µM

FKRIVQRIKDFLR-NH2 [FK-13]
Kd (G-actin): 18.6 µM
MIC (Bacillus subtilis PY79; PY79): 3.3 µM

KRIVQRIKDF-NH2 [KR-10]
Kd (G-actin): 28.4 µM
MIC (E. coli K12; K12): >160 µM

KRIVQRIKDFLR-NH2 [KR-12]
Kd (G-actin): 11.8 µM
MIC (Bacillus subtilis PY79; PY79): 6.6 µM

From publication PMC4696493 (RSC advances, 2014)
